Experimental data published in US20230115350A1 (Cedilla Therapeutics, Inc., priority 2021, published 2023).

biological target: TEAD1 protein (YAP Binding Domain) (Homo sapiens, UniProt P28347); assay: TEAD1 lipid pocket compound displacement assay (TR-FRET, Cy5-probe); conditions: 60 minutes incubation at room temperature; TR-FRET 665 nm/620 nm; read-out: CDA IC50
Protocol: Compound Displacement Assay.
A TEAD1 lipid pocket displacement assay was carried out according to the following protocol. Purified His-tagged TEAD1 protein (YAP Binding Domain) was pre-mixed with a Cy5-probe (Cy5-conjugated to a small molecule that binds in the TEAD1 lipid pocket) and Terbium-labeled anti-His antibody (Cisbio Cat 61HI2TLB). The binding of the Cy5-probe to anti-His-Tb/His-tag TEAD1 complex yielded a TR-FRET signal. […] After 60 minutes incubation at room temperature of compounds with the His-TEAD1/anti-His-Tb/Cy5-probe complex, the plate was read on a plate reader (BMG ClarioStar Cat 430-1300) using TR-FRET mode with wavelengths of 665 nm/620 nm. The potency of compounds as TEAD1 lipid pocket binders was determined by IC50 value generated using a non-linear 4 parameter curve fit.

Chain of TEAD1 protein (YAP Binding Domain) (P28347 209-426 limits assumed): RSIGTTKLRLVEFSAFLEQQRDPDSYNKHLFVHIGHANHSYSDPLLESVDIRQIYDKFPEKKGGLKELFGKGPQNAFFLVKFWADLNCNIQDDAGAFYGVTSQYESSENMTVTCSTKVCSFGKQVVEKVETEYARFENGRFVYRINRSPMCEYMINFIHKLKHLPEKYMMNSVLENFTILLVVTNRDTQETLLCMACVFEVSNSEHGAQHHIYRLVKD

SMILES	IC50 [nM]
C=CC(=O)Nc1ccc(OCc2cccc(F)c2)c(C2CC2)c1 [Compound 2, N-(3-cyclopropyl-4-((3-fluorobenzyl)oxy)phenyl)acrylamide]	250 to 500
C=CC(=O)Nc1ccc(OCc2cccc(F)c2)cc1C1CC1 [Compound 4, N-(2-cyclopropyl-4-((3-fluorobenzyl)oxy)phenyl)acrylamide]	250 to 500
C=CC(=O)Nc1ccc2c(c1)CCC(c1cccc(F)c1)O2 (centres unmarked) [Compound 5, N-(2-(3-fluorophenyl)chroman-6-yl)acrylamide]	> 2000
C=CC(=O)Nc1ccc(OCc2cccc(F)c2)c(OC)c1 [Compound 6, N-(4-((3-fluorobenzyl)oxy)-3-methoxyphenyl)acrylamide]	250 to 500
C=CC(=O)Nc1ccc(OCc2cccc(F)c2)cc1OC [Compound 7, N-(4-((3-fluorobenzyl)oxy)-2-methoxyphenyl)acrylamide]	≤ 250
C=CC(=O)Nc1ccc2c(c1)OCC(c1cccc(F)c1)O2 (centres unmarked) [Compound 8, N-(2-(3-fluorophenyl)-2,3-dihydrobenzo[b][1,4]dioxin-6-yl)acrylamide]	250 to 500
C=CC(=O)Nc1ccc2c(c1)NCC(c1cccc(F)c1)O2 (centres unmarked) [Compound 10, N-(2-(3-fluorophenyl)-3,4-dihydro-2H-benzo[b][1,4]oxazin-6-yl)acrylamide]	> 2000
C=CC(=O)Nc1ccc(OCc2cccc(F)c2)cc1CC(N)=O [Compound 11, N-(2-(2-amino-2-oxoethyl)-4-((3-fluorobenzyl)oxy)phenyl)acrylamide]	> 2000
C=CC(=O)Nc1ccc2c(c1)N(C)CC(c1cccc(F)c1)O2 (centres unmarked) [Compound 12, N-(2-(3-fluorophenyl)-4-methyl-3,4-dihydro-2H-benzo[b][1,4]oxazin-6-yl)acrylamide]	> 2000
C=CC(=O)Nc1ccc(OCc2cccc(F)c2)cc1Cc1ccncc1 [Compound 13, N-(4-((3-fluorobenzyl)oxy)-2-(pyridin-4-ylmethyl)phenyl)acrylamide]	> 2000
C=CC(=O)Nc1ccc(OCc2cccc(F)c2)c2c1CCCO2 [Compound 14, N-(8-((3-fluorobenzyl)oxy)chroman-5-yl)acrylamide]	> 2000
C=CC(=O)Nc1ccc(OCc2cccc(F)c2)c2c1CCCC2 [Compound 15, N-(4-((3-fluorobenzyl)oxy)-5,6,7,8-tetrahydronaphthalen-1-yl)acrylamide]	250 to 500
C=CC(=O)Nc1ccc(OCc2cccc(F)c2)cc1CC1CC1 [Compound 16, N-(2-(cyclopropylmethyl)-4-((3-fluorobenzyl)oxy)phenyl)acrylamide]	> 2000
C=CC(=O)Nc1ccc(N(Cc2cccc(F)c2)CC2CC2)c(F)c1 [Compound 17, N-(4-((cyclopropylmethyl)(3-fluorobenzyl)amino)-3-fluorophenyl)acrylamide]	≤ 250
C=CC(=O)Nc1ccc(N(Cc2ccncc2)Cc2cccc(F)c2)c(F)c1 [Compound 18, N-(3-fluoro-4-((3-fluorobenzyl)(pyridin-4-ylmethyl)amino)phenyl)acrylamide]	> 2000
C#Cc1cccc(COc2ccc(NC(=O)C=C)cc2F)c1 [Compound 25, N-(4-((3-ethynylbenzyl)oxy)-3-fluorophenyl)acrylamide]	250 to 500
Fc1cc(-c2nnn[nH]2)ccc1OCC1CCC(F)(F)CC1 [Compound 29, 5-(4-((4,4-difluorocyclohexyl)methoxy)-3-fluorophenyl)-1H-tetrazole]	500 to 2000
C=CC(=O)Nc1ccc(OC(C)C2CCC(F)(F)CC2)c(F)c1 (centres unmarked) [Compound 30, N-(4-(1-(4,4-difluorocyclohexyl)ethoxy)-3-fluorophenyl)acrylamide]	250 to 500
C=CC(=O)Nc1ccc(NC(=O)C2CCC(F)(F)CC2)c(F)c1 [Compound 32, N-(4-acrylamido-2-fluorophenyl)-4,4-difluorocyclohexanecarboxamide]	≤ 250
CS(=O)(=O)Nc1ccc(OCC2CCC(F)(F)CC2)c(F)c1 [Compound 33, N-(4-((4,4-difluorocyclohexyl)methoxy)-3-fluorophenyl)methane sulfonamide]	500 to 2000
